Assays:
HEK/ABCB1 (ABCB1) = experiment: MTT cytotoxicity/reversal assay (Example 1); conditions: HEK/ABCB1
Experimental: The KB-C2 and KB-3-1 were kindly provided by Dr. Akiyama (Kagoshima University, Japan). […] Similarly, the HEK/MRP1 (ABCC1) and HEK/ABCB1 cells were generated by transfecting the HEK293 cells with either the MRP1 expression vector or the ABCB1 expression vector. All of the cell lines were grown in Dulbecco's modified Eagle's medium (DMEM) supplemented with 10% bovine serum, 100 units/ml penicillin, and […] streptomycin in a humidified incubator containing 5% CO2 at 37° C.
(§1) The MTT assay was used to assess cytotoxicity. The cultured cells were harvested with trypsin and resuspended in a final concentration of 4×10^3 cells/well for KB-3-1; 7.5×10^3 cells/well for KB-C2; and 8×10^3 for all of the other cell lines used in this study. Cells were seeded evenly in 96-well multiplates. […] After 68 h of incubation, 20 μl of the MTT solution (4 mg/ml) was added to each well, and the plate was further incubated for 4 h at 37° C., allowing viable cells to convert the yellow-colored MTT into dark-blue formazan crystals. Subsequently, the medium was discarded, and 100 μl of DMSO was added into each well to dissolve the formazan crystals, generating purple color. The absorbance was determined at 570 nm by an OPSYS Microplate Reader from DYNEX Technologies, Inc. (Chantilly, Va.). […] The degree of the reversal of multidrug resistance (MDR) was calculated by dividing the IC50 of an anticancer drug, e.g., an antineoplastic or chemotherapeutic drug (agent, compound), in a cell type in the absence of a reversal agent by the IC50 of the anticancer drug in the same cell type in the presence of the reversal agent. The IC50 values were calculated from survival curves using the Bliss method.

HEK/MRP7 cells [1] = experiment: [^3H]-paclitaxel efflux (Example 4); assay type: cell-based; conditions: 5 μM PDE5 inhibitor
Experimental: (§2) The effect of PDE5 inhibitors on the intracellular accumulation of paclitaxel in HEK293-pcDNA3.1 and HEK/MRP7 cells was measured using [^3H]-paclitaxel. […] For efflux studies, the cells were treated the same as in the drug accumulation study, and then washed three times with ice-cold PBS, and suspended in fresh medium with or without PDE5 inhibitors. Aliquots were evenly collected at various time points (0, 30, 60, and 120 min). Samples from both accumulation and efflux experiments were washed with ice-cold PBS three times and placed in scintillation fluid, and the radioactivity was measured in a Packard TRI-CARB® 1900CA liquid scintillation analyzer from Packard Instrument Company, Inc. (Downers Grove, Ill.).

HEK/MRP7 cells [2] = experiment: [^3H]-paclitaxel accumulation (Example 4); assay type: cell-based; conditions: 5 μM, 2 h
Experimental: as §2

KB-C2 (ABCB1) = experiment: MTT cytotoxicity/reversal assay (Example 1); assay type: cell-based, human
Experimental: (§3) The KB-C2 and KB-3-1 were kindly provided by Dr. Akiyama (Kagoshima University, Japan). HEK293-pcDNA3.1 and wild-type HEK/ABCG2 transfected cells were established by selection with G418 after transfecting HEK293 with either (1) empty pcDNA3.1 vector or (2) pcDNA3.1 vector containing full length of ABCG2 coding arginine (R) at amino acid position 482, and were then cultured in a medium with 2 mg/ml of G418 (ABCG2-482-R2 cells). Similarly, the HEK/MRP1 (ABCC1) and HEK/ABCB1 cells were generated by transfecting the HEK293 cells with either the MRP1 expression vector or the ABCB1 expression vector. All of the cell lines were grown in Dulbecco's modified Eagle's medium (DMEM) supplemented with 10% bovine serum, 100 units/ml penicillin, and […] streptomycin in a humidified incubator containing 5% CO2 at 37° C.
as §1

KB-3-1 = experiment: MTT cytotoxicity/reversal assay (Example 1); assay type: cell-based, human
Experimental: as §3, §1

HEK 293-pcDNA-3.1 = experiment: MTT cytotoxicity assay (Example 4); assay type: cell-based; conditions: HEK 293-pcDNA-3.1
Experimental: (§4) The MRP7 cDNA was generously provided by Dr. Gary Kruh (University of Illinois, Chicago, Ill.) and inserted into the pcDNA3.1 expression vector. […] Individual colonies were selected in medium containing G418 (1 mg/ml) and cultured for further analysis.
(§5) MTT colorimetric assay was performed to analyze the drug sensitivity as previously described (Shi et al. (2007) Cancer Res. 67:11012-20). HEK293-pcDNA3.1 and HEK/MRP7 cells were seeded into 96-well plates in triplicate at 6000 cells/well.
(§6) After drug incubation of 68 h, 20 μl MTT solution (4 mg/ml) was added into each well. […] The Bliss method was used to calculate the IC50 values according to survival curves.

HEK/MRP7 = experiment: MTT cytotoxicity assay (Example 4); assay type: cell-based;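 note: drug IC50 in HEK/MRP7 divided by IC50 in parental HEK293-pcDNA3.1 cells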
Experimental: as §4, §5, §6

HEK293/pcDNA3.1 = experiment: MTT cytotoxicity/reversal assay (Example 1); assay type: cell-based
Experimental: as §3, §1

KB-C2 cells (ABCB1) = experiment: [^3H]-paclitaxel accumulation (Example 1); assay type: cell-based, human; conditions: 10 μM
Experimental: The intracellular accumulation of [^3H]-paclitaxel was measured as follows. […] Intracellular paclitaxel accumulation was measured by incubating cells with 0.1 μM [^3H]-paclitaxel for 2 h in the presence or absence of the reversal agents at 37° C. The cells were washed three times with ice-cold PBS, then suspended in fresh medium with or without reversal agents at 37° C. Aliquots of the extracellular medium (40 μl) were collected at various time points (0, 60, 120 min), and finally the cells were collected and lysed in 10 mM lysis buffer (pH 7.4, containing 1% Triton X-100 and 0.2% SDS). Each sample was placed in scintillation fluid and the radioactivity was measured in a Packard TRI-CARB1 1900CA liquid scintillation analyzer from Packard Instrument Company, Inc. (Downers Grove, Ill.).

[3] = HEK293/pcDNA3.1 (Table 6), +10 μM reversal agent
[4] = HEK293/pcDNA3.1, +5 μM reversal agent
[5] = HEK293/pcDNA3.1, +10 μM reversal agent

CN1CC(=O)N2[C@H](c3ccc4c(c3)OCO4)c3[nH]c4ccccc4c3C[C@@H]2C1=O [Tadalafil, tadalafil]
fold reversal, cisplatin (HEK/ABCB1 (ABCB1); +5 μM reversal agent): (0.94)
fold reversal, paclitaxel (HEK/ABCB1 (ABCB1); +5 μM reversal agent): (1.37)
fold reversal, vincristine (HEK/ABCB1 (ABCB1); +5 μM reversal agent): (1.50)
fold reversal, cisplatin (HEK/ABCB1 (ABCB1); +10 μM reversal agent): (1.09)
fold reversal, paclitaxel (HEK/ABCB1 (ABCB1); +10 μM reversal agent): (2.26)
fold reversal, vincristine (HEK/ABCB1 (ABCB1); +10 μM reversal agent): (2.45)
percentage of intracellular [^3H]-paclitaxel (HEK/MRP7 cells [1]; 30 min): 76.44%
percentage of intracellular [^3H]-paclitaxel (HEK/MRP7 cells [1]; 60 min): 63.41%
percentage of intracellular [^3H]-paclitaxel (HEK/MRP7 cells [1]; 120 min): 46.48%
increase of intracellular accumulation of [^3H]-paclitaxel (HEK/MRP7 cells [2]): 2.1 fold
fold reversal, cisplatin (KB-C2 (ABCB1); +5 μM reversal agent): (1.01)
fold reversal, colchicine (KB-C2 (ABCB1); +5 μM reversal agent): (4.19)
fold reversal, paclitaxel (KB-C2 (ABCB1); +5 μM reversal agent): (2.53)
fold reversal, cisplatin (KB-C2 (ABCB1); +10 μM reversal agent): (0.93)
fold reversal, colchicine (KB-C2 (ABCB1); +10 μM reversal agent): (6.38)
fold reversal, paclitaxel (KB-C2 (ABCB1); +10 μM reversal agent): (4.48)
fold reversal, cisplatin (KB-3-1; +5 μM reversal agent): (0.96)
fold reversal, colchicine (KB-3-1; +5 μM reversal agent): (0.86)
fold reversal, paclitaxel (KB-3-1; +5 μM reversal agent): (0.93)
fold reversal, cisplatin (KB-3-1; +10 μM reversal agent): (1.06)
fold reversal, colchicine (KB-3-1; +10 μM reversal agent): (0.89)
fold reversal, paclitaxel (KB-3-1; +10 μM reversal agent): (1.02)
fold-resistance, docetaxel (HEK 293-pcDNA-3.1; +1.25 μM reversal agent): (1.09)
fold-resistance, paclitaxel (HEK 293-pcDNA-3.1; +1.25 μM reversal agent): (1.07)
fold-resistance, vinblastine (HEK 293-pcDNA-3.1; +1.25 μM reversal agent): (1.06)
fold-resistance, cisplatin (HEK 293-pcDNA-3.1; +5 μM reversal agent): (1.11)
fold-resistance, docetaxel (HEK 293-pcDNA-3.1; +5 μM reversal agent): (1.02)
fold-resistance, paclitaxel (HEK 293-pcDNA-3.1; +5 μM reversal agent): (0.93)
fold-resistance, vinblastine (HEK 293-pcDNA-3.1; +5 μM reversal agent): (0.95)
fold-resistance, docetaxel (HEK/MRP7; +1.25 μM reversal agent): (10.91)
fold-resistance, paclitaxel (HEK/MRP7; +1.25 μM reversal agent): (8.06)
fold-resistance, vinblastine (HEK/MRP7; +1.25 μM reversal agent): (4.58)
fold-resistance, cisplatin (HEK/MRP7; +5 μM reversal agent): (1.12)
fold-resistance, docetaxel (HEK/MRP7; +5 μM reversal agent): (8.35)
fold-resistance, paclitaxel (HEK/MRP7; +5 μM reversal agent): (5.87)
fold-resistance, vinblastine (HEK/MRP7; +5 μM reversal agent): (3.62)
fold reversal, vincristine (HEK293/pcDNA3.1; [3]): (1.09)
fold reversal, cisplatin (HEK293/pcDNA3.1; [4]): (0.99)
fold reversal, paclitaxel (HEK293/pcDNA3.1; [4]): (0.99)
fold reversal, vincristine (HEK293/pcDNA3.1; [4]): (1.15)
fold reversal, SN-38 (HEK293/pcDNA3.1; [5]): (0.96)
fold reversal, cisplatin (HEK293/pcDNA3.1; [5]): (1.12)
fold reversal, paclitaxel (HEK293/pcDNA3.1; [5]): (1.21)
fold reversal, vincristine (HEK293/pcDNA3.1; [5]): (1.35)
effect on paclitaxel accumulation (KB-C2 cells (ABCB1)): had significant effects on paclitaxel accumulation

CCCc1nc(C)c2c(=O)[nH]c(-c3cc(S(=O)(=O)N4CCN(CC)CC4)ccc3OCC)nn12 [Vardenafil, vardenafil]
fold reversal, cisplatin (HEK/ABCB1 (ABCB1); +5 μM reversal agent): (0.95)
fold reversal, paclitaxel (HEK/ABCB1 (ABCB1); +5 μM reversal agent): (3.86)
fold reversal, vincristine (HEK/ABCB1 (ABCB1); +5 μM reversal agent): (4.10)
fold reversal, cisplatin (HEK/ABCB1 (ABCB1); +10 μM reversal agent): (1.09)
fold reversal, paclitaxel (HEK/ABCB1 (ABCB1); +10 μM reversal agent): (8.69)
fold reversal, vincristine (HEK/ABCB1 (ABCB1); +10 μM reversal agent): (11.60)
percentage of intracellular [^3H]-paclitaxel (HEK/MRP7 cells [1]; 30 min): 95.34%
percentage of intracellular [^3H]-paclitaxel (HEK/MRP7 cells [1]; 60 min): 93.58%
percentage of intracellular [^3H]-paclitaxel (HEK/MRP7 cells [1]; 120 min): 63.92%
increase of intracellular accumulation of [^3H]-paclitaxel (HEK/MRP7 cells [2]): 3.7 fold
fold reversal, cisplatin (KB-C2 (ABCB1); +5 μM reversal agent): (0.87)
fold reversal, colchicine (KB-C2 (ABCB1); +5 μM reversal agent): (27.6)
fold reversal, paclitaxel (KB-C2 (ABCB1); +5 μM reversal agent): (26.2)
fold reversal, cisplatin (KB-C2 (ABCB1); +10 μM reversal agent): (0.96)
fold reversal, colchicine (KB-C2 (ABCB1); +10 μM reversal agent): (184.8)
fold reversal, paclitaxel (KB-C2 (ABCB1); +10 μM reversal agent): (54.1)
fold reversal, cisplatin (KB-3-1; +5 μM reversal agent): (0.89)
fold reversal, colchicine (KB-3-1; +5 μM reversal agent): (0.90)
fold reversal, paclitaxel (KB-3-1; +5 μM reversal agent): (0.89)
fold reversal, cisplatin (KB-3-1; +10 μM reversal agent): (0.93)
fold reversal, colchicine (KB-3-1; +10 μM reversal agent): (0.93)
fold reversal, paclitaxel (KB-3-1; +10 μM reversal agent): (0.92)
fold-resistance, docetaxel (HEK 293-pcDNA-3.1; +1.25 μM reversal agent): (1.0)
fold-resistance, paclitaxel (HEK 293-pcDNA-3.1; +1.25 μM reversal agent): (0.93)
fold-resistance, vinblastine (HEK 293-pcDNA-3.1; +1.25 μM reversal agent): (0.96)
fold-resistance, cisplatin (HEK 293-pcDNA-3.1; +5 μM reversal agent): (1.07)
fold-resistance, docetaxel (HEK 293-pcDNA-3.1; +5 μM reversal agent): (0.80)
fold-resistance, paclitaxel (HEK 293-pcDNA-3.1; +5 μM reversal agent): (0.79)
fold-resistance, vinblastine (HEK 293-pcDNA-3.1; +5 μM reversal agent): (0.85)
fold-resistance, docetaxel (HEK/MRP7; +1.25 μM reversal agent): (5.56)
fold-resistance, paclitaxel (HEK/MRP7; +1.25 μM reversal agent): (2.99)
fold-resistance, vinblastine (HEK/MRP7; +1.25 μM reversal agent): (3.01)
fold-resistance, cisplatin (HEK/MRP7; +5 μM reversal agent): (1.09)
fold-resistance, docetaxel (HEK/MRP7; +5 μM reversal agent): (1.19)
fold-resistance, paclitaxel (HEK/MRP7; +5 μM reversal agent): (1.06)
fold-resistance, vinblastine (HEK/MRP7; +5 μM reversal agent): (1.11)
fold reversal, vincristine (HEK293/pcDNA3.1; [3]): (0.92)
fold reversal, cisplatin (HEK293/pcDNA3.1; [4]): (1.06)
fold reversal, paclitaxel (HEK293/pcDNA3.1; [4]): (1.09)
fold reversal, vincristine (HEK293/pcDNA3.1; [4]): (0.88)
fold reversal, SN-38 (HEK293/pcDNA3.1; [5]): (1.10)
fold reversal, cisplatin (HEK293/pcDNA3.1; [5]): (1.00)
fold reversal, paclitaxel (HEK293/pcDNA3.1; [5]): (1.18)
fold reversal, vincristine (HEK293/pcDNA3.1; [5]): (1.19)
increase of intracellular accumulation of paclitaxel (KB-C2 cells (ABCB1)): 1.6 fold
